Experimental data as given in patent publication US9889135B2, “Companion diagnostic for CDK4 inhibitors” (Memorial Sloan-Kettering Cancer Center, priority 2013, dated 2018).

What was measured:
[1] = test system: seven RB-positive patient derived WD/DDLS cell lines; experiment: cell cycle distribution, propidium iodine and flow cytometry; type: cell-based, human; conditions: two days of treatment
Experimental: Percentages annotated on graphs represent the mean of three or more independent experiments. Cells were stained with BrdU (20 μM for two hours) or annexin V as previously described (22, 48). […] was determined by staining with propidium iodine and FACS analyses (49).

LS8817 cells = experiment: PD0332991 induced senescence after knock down of p53 or INK4A products; type: cell-based, human
Experimental: LS8817 cells were infected with lentiviruses expressing either a scrambled (shSCR) or two independent p53 targeting (shp53a and shp53d2) shRNAs. […] The accumulation of senescence associated β-galactosidase (top), and the expression of MDM2 and p53 were determined by immunoblot (bottom). Coomassie staining of the gel indicated equivalent loading.

[2] = test system: seven RB-positive patient derived WD/DDLS cell lines; experiment: BrdU incorporation in liposarcoma cell lines; type: cell-based, human; conditions: asynchronously growing cells, 48 hours
Experimental: FIG. 1A-C. […] Mean percentage of BrdU incorporation or annexin V+/7-AAD− cells was calculated from three or more independent experiments. Error bars represent standard deviation (*p<0.05).
Cell lines were developed from WD/DDLS tumors resected from surgical patients after obtaining informed consent. LS8817 and LS0082 have previously been described using the nomenclature DDLS8817 and WD0082. DNA was extracted from cell lines using standard protocols (QIAGEN DNEasy) and lineage confirmed by copy number array to confirm amplification of segment 12q13-15 (Agilent 244K according to manufacturer's specifications). Analysis of comparative genomic hybridization data was performed using a custom pipeline, which conducts the standard circular binary segmentation from the R/bioconductor DNA copy library and processes all samples with the RAE algorithm (47). […]
shRNA were delivered in the pLKO.1 vector (Sigma) and infected cells selected using puromycin (1 μg/ml); infection with a virus carrying a scramble control ([…]) was used as a control in all experiments utilizing shRNA. […] G0 content was determined by staining with propidium iodine and FACS analyses (49).
Cells were stained with BrdU (20 μM for two hours) or annexin V as previously described (22, 48). […] was determined by staining with propidium iodine and FACS analyses (49).

[3] = test system: MDM2 in LS0082, LS141 and LS8817 cells; experiment: MDM2 turnover (cycloheximide chase), responder cells; type: cell-based, human; conditions: 1 μM for 48 hrs, then cycloheximide
Experimental: The level of MDM2 was measured by immunoblot (center). Tubulin was a loading control. […] This experiment was repeated at least three times on different biologic replicates. […] Tubulin is a loading control. Data compiled from at least three independent experiments is plotted (mean and standard deviation) and a representative immunoblot is shown. […] The graphs are compiled from the data obtained in three independent biologic replicates and representative autoradiographs are shown.

[4] = test system: MDM2 in LS8107 and LS7785-1 cells; experiment: MDM2 levels by immunoblot, non-responder cells; type: cell-based, human; conditions: non-responders LS8107 and LS7785-1; two days
Experimental: (A) Immunoblot. […] Tubulin was a loading control. (B) Immunoblot.
Antibodies against CDK4 (3F121), MDM2 (N-20 and SMP14), total RB (IF8), Cyclin A (H432), p16 (C20), p53 (DO-1 and Bp53-12), tubulin (C20) and FLAG (M2) were obtained from Santa Cruz Biotechnology, phospho-Rb 780 (#9307) from Cell Signalling, and ARF (3642) from Abeam, HAUSP (A300-033A) from Bethyl Laboratories. Treated cells were lysed with buffer composed of 50 mM Tris-HCl, pH7.4, 250 mM NaCl, 5 mM EDTA, 0.5% NP40, 2 mM PMSF, and supplemented with protease inhibitors. Eighty micrograms of protein were resolved by SDS-PAGE and transferred to PVDF membranes. Membranes were incubated overnight with antibodies (1:1000). […] Pre-treatment biopsies were collected within two weeks of the first dose and post-treatment biopsies collected after at last three weeks of treatment. Extracts were prepared in 50 mM Tris-HCl, pH7.4, 150 mM NaCl, 1 mM EDTA, 1% NP40, 0.25% sodium deoxycholate and supplemented with mini-protease inhibitor cocktail (Roche). Tumor response was assessed by reference radiologist by CT scan every six weeks for 36 weeks, and every 12 weeks thereafter.

WD/DDLS = conditions: cited from earlier work
[5] = test system: MDM2 in glioma (U87MG, U251, SNB19, DBTRG-05MG) and breast cancer (MDA453, T47D, ZR-75-1, and MCF7) cells; experiment: MDM2 levels in glioma and breast cancer cell lines; type: cell-based; conditions: eight glioma and breast cancer cell lines
Text: FIG. 19A-C. Senescence associated with the downregulation of MDM2 is p53 and INK4 independent. […] This experiment was repeated three times with similar results in both LS8817 and LS141. […] The p53 mutational status of these cell lines (WT, wild type; R273H and L194F, missense mutations; if-DEL, in-frame deletion of 30 nucleotides at amino acid 368) were obtained from the p53 mutation database and the RIKEN bioresource databank and is consistent with the detection of p21 by immunoblot. (C) SNB19 cells, a p53 mutant and INK4A deficient cell, was transduced with the mutants described in panel A and their effect on senescence determined.
Antibodies against CDK4 (3F121), MDM2 (SMP-14), total RB (IFS), Cyclin A (H432), p16 (C20), and p53 (Bp53-12), were obtained from Santa Cruz Biotechnology, phospho-Rb 780 (#9307) from Cell Signalling, and ARF (3642) from Abeam. Treated cells were lysed with buffer composed of 50 mM Tris-HCl, pH7.4, 250 mM NaCl, 5 mM EDTA, 0.5% NP40, 2 mM PMSF, and supplemented with protease inhibitors. Eighty micrograms of protein were resolved by SDS-PAGE and transferred to PVDF membranes. Membranes were incubated overnight with antibodies (1:1000).

## CC(=O)c1c(C)c2cnc(Nc3ccc(N4CCNCC4)cn3)nc2n(C2CCCC2)c1=O [PD0332991]
[1]
  cell cycle distribution: accumulating in G0/G1
LS8817 cells; p16 and Arf knocked down
  PD0332991 induced senescence: not affected
LS8817 cells; p53 deficient cells (two independent shRNAs)
  SA-β-gal positive cells: still accumulated
[2]
  incorporation of bromodeoxyuridine (BrdU): significant reduction
[3]
  MDM2 stability / protein half-life: markedly reduced
[4]
  MDM2 reduction: not
WD/DDLS; 30 WD/DDLS patients
  patients with prolonged stable disease: 66%
WD/DDLS; one patient
  time at which one patient achieved a RECIST partial response: 74 weeks
WD/DDLS; patients
  myelosuppression: common
  tolerability: generally well-tolerated
WD/DDLS; three other patients, favorable response that did not meet RECIST
  decrease in tumor size: at least 10%
[5]
  MDM2 levels: decreased
